Experimental data reported in patent US10407382B2, “EP4 agonists as therapeutic compounds” (ALLERGAN, INC., priority 2014, dated 2019).

Assays:
[1] = target: T1, EP4 (Homo sapiens, UniProt P35408); experiment: Radioligand binding, EP4; design: expressed in transfected cells; membrane fraction; details: [3H]PGE2 competition
Experimental: (§1) Data from running binding and activity studies on the compounds of the invention were carried out as described in U.S. Pat. No. 7,427,685, the contents of which are incorporated herein by reference.
(§2) Cells Stably Expressing EP1, EP2, EP4, and FP Receptors
(§3) HEK-293 cells stably expressing the human or feline FP receptor, or EP1, EP2, or EP4 receptors were washed with TME buffer, scraped from the bottom of the flasks, and homogenized for 30 sec using a Brinkman PT 10/35 polytron. TME buffer was added to achieve a final 40 ml volume in the centrifuge tubes (the composition of TME is 100 mM TRIS base, 20 mM MgCl2, […]; ION HCl is added to achieve a pH of 7.4).
(§4) The cell homogenate was centrifuged at 19000 rpm for 20 min at 4° C. using a Beckman Ti-60 rotor. The resultant pellet was resuspended in TME buffer to give a final 1 mg/ml protein concentration, as determined by Biorad assay. Radioligand binding competition assays vs. [^3H-]17-phenyl PGF2α (5 nM) were performed in a 100 μl volume for 60 min. Binding reactions were started by adding plasma membrane fraction. The reaction was terminated by the addition of 4 ml ice-cold TRIS-HCl buffer and rapid filtration through glass fiber GF/B filters using a Brandel cell harvester. The filters were washed 3 times with ice-cold buffer and oven dried for one hour.
(§5) [^3H-] PGE2 (specific activity 180 Ci mmol) was used as the radio ligand for EP receptors. [^3H] 17-phenyl PGF2α was employed for FP receptor binding studies. Binding studies employing EP1, EP2, EP4 and FP receptors were performed in duplicate in at least three separate experiments. A 200 μl assay volume was used. Incubations were for 60 min at 25° C. and were terminated by the addition of 4 ml of ice-cold 50 mM TRIS-HCl, followed by rapid filtration through Whatman GF/B filters and three additional 4 ml washes in a cell harvester (Brandel). Competition studies were performed using a final concentration of 5 nM [^3H]-PGE2, or 5 nM [^3H] 17-phenyl PGF2α and non-specific binding determined with 10^−5M of unlabeled PGE2, or 17-phenyl PGF2α, according to receptor subtype studied.

[2] = target: T1, EP4; experiment: cAMP assay, EP4; assay type: cell-based; design: expressed in transfected cells; host or cells: HEK-EBNA cells; details: HEK-EBNA cells expressing EP4
Experimental: A 384-well drug plate was prepared to contain 6 test compounds, PGE2 and cAMP in 16 serial dilutions in triplicate, using a Biomek station. HEK-EBNA cells expressing a target PG receptor subtype (EP2 or EP4) were suspended in a stimulation buffer (HBSS, 0.1% BSA, 0.5 mM IBMX and 5 mM HEPES, pH 7.4) in a density of 10^4 cells/5 μL. The reaction was initiated by mixing 5 μL drug dilutions with 5 μL of HEK-EBNA cells in a well, carried out for 30 min at room temperature, and followed by the addition of 5 μL anti-cAMP acceptor beads in the control buffer with Tween-20 (25 mM NaCl, 0.03% Tween-20, 5 mM HEPES, pH 7.4). After 30 min in the dark at room temperature, the mixtures were incubated with 15 μL biotinylated-cAMP/strepavidin donor beads in Lysis/Detection buffer (0.1% BSA, 0.3% Tween-20 and 5 mM HEPES, pH 7.4) for 45 min at the room temperature. Fluorescence changes were read using a Fusion-alpha HT microplate reader.

[3] = target: EP2 (Homo sapiens, UniProt P43116); experiment: Ki competition binding, EP2; design: expressed in transfected cells; details: [3H]PGE2 competition; NA = no activity
Experimental: as §1
Competition binding experiments were performed in a medium containing Hank's balanced salt solution, Hepes 20 mM, pH 7.3, membranes (˜60 μg protein) or 2×10^5 cells from HEK 293 cells stably expressing human EP2 receptors, [^3H]PGE2 (10 nM) and various concentrations of test compounds in a total volume of 300 μl. Reaction mixtures were incubated at 23° C. for 60 min, and were filtered over Whatman GF IB filters under vacuum. Filters were washed three times with 5 ml ice-cold buffer containing 50 mM Tris/HCl (PH 7.3). Non-specific binding was estimated in the presence of excess unlabeled PGE2 (10 μM). Binding data fitted to the binding model for a single class of binding sites, using nonlinear regression analysis. IC50 values thus obtained were converted to Ki using the equation of Ki=(IC50/(1+[L]/KD) where [L] represents PGE2 concentration (10 nM) and KD the dissociation constant for [^3H]PGE2 at human EP2 receptors (40 nM).
as §2, §3, §4, §5

EP2, sequence (P43116 whole entry): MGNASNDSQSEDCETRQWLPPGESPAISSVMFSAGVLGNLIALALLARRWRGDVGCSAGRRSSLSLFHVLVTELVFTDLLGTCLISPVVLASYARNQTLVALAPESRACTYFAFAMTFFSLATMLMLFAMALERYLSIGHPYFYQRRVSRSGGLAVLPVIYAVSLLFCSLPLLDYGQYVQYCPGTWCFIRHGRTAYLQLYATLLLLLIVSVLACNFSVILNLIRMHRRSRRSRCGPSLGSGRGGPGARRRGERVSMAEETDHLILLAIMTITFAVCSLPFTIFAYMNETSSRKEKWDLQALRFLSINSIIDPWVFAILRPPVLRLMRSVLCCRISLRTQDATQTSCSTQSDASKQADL
T1 sequence (P35408 whole entry): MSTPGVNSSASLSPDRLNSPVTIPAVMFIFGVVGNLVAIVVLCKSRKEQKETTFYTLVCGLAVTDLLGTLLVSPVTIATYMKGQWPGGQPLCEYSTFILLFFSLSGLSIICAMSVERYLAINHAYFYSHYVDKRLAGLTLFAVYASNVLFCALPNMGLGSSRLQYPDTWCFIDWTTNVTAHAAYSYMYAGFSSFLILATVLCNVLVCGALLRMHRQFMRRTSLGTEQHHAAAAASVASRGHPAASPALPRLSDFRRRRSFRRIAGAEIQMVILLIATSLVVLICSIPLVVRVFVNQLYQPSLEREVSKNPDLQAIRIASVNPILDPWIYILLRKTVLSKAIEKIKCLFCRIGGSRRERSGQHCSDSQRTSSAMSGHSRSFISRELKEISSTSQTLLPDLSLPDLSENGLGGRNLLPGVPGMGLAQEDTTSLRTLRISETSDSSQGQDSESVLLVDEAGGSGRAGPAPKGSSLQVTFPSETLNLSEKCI

SMILES	Ki [1]	EC50 [2]	Ki [3]	EP4 data cAMP EC50 [2]
COc1cc(CC2C3CCC(C3)C2C(=O)NCc2ccc(C(=O)O)cc2)cc(OC)c1 (racemic) [Example 39, 4-((3-(3,5-Dimethoxybenzyl)bicyclo[2.2.1]heptane-2-carboxamido)methyl)benzoic Acid]	77 nM	> 10 µM		
COc1ccccc1CC1=C(C(=O)NCc2ccc(C(=O)O)cc2)CCCC1 [Example 30, 4-((2-(2-Methoxybenzyl)cyclohex-1-enecarboxamido)methyl)benzoic Acid]	6 nM	> 10 µM	219 nM	
COc1ccc(OC)c(CC2CCCCC2C(=O)NCc2ccc(C(=O)O)cc2)c1 (single isomer, unassigned) [Example 18, 4-((2-(2,5-Dimethoxybenzyl)cyclohexanecarboxamido)methyl)benzoic Acid]	16 nM	> 10 µM	462 nM	
COc1cc(C/C2=C(\C(=O)NCc3ccc(C(=O)O)cc3)CCCCCC2)cc(OC)c1 [Example 20, 4-((2-(3,5-Dimethoxybenzyl)cyclooct-1-enecarboxamido)methyl)benzoic Acid]	0.2 nM	> 10 µM	> 10000 nM	
COc1cccc(CC2CCCCC2C(=O)NCc2ccc(C(=O)O)cc2)c1 (single isomer, unassigned) [Example 29, 4-((2-(3-Methoxybenzyl)cyclohexanecarboxamido)methyl)benzoic Acid]	19 nM	0.004 µM	2570 nM	
COc1ccc(CC2CCCCC2C(=O)NCc2ccc(C(=O)O)cc2)cc1 (single isomer, unassigned) [Example 35, 4-((2-(4-Methoxybenzyl)cyclohexanecarboxamido)methyl)benzoic Acid]	86 nM	> 10 µM	> 10000 nM	
COc1ccc(CC2=C(C(=O)NCc3ccc(C(=O)O)cc3)CCCC2)cc1 [Example 33, 4-((2-(4-Methoxybenzyl)cyclohex-1-enecarboxamido)methyl)benzoic Acid]	1 nM	> 10 µM	1140 nM	
COc1cccc(CC2=C(C(=O)NCc3ccc(C(=O)O)cc3)CCCC2)c1OC [Example 14, 4-((2-(2,3-Dimethoxybenzyl)cyclohex-1-enecarboxamido)methyl)benzoic Acid]	45 nM	> 10 µM	1190 nM	
COc1ccc(CC2CCCCC2C(=O)NCc2ccc(C(=O)O)cc2)cc1 (single isomer, unassigned) [Example 34, 4-((2-(4-Methoxybenzyl)cyclohexanecarboxamido)methyl)benzoic Acid]	44 nM	> 10 µM	> 10000 nM	
COc1ccccc1CC1CCCCC1C(=O)NCc1ccc(C(=O)O)cc1 (single isomer, unassigned) [Example 31, 4-((2-(2-Methoxybenzyl)cyclohexanecarboxamido)methyl)benzoic Acid]	5 nM	> 10 µM	994 nM	
COc1ccccc1CC1CCCCC1C(=O)NCc1ccc(C(=O)O)cc1 (single isomer, unassigned) [Example 32, 4-((2-(2-Methoxybenzyl)cyclohexanecarboxamido)methyl)benzoic Acid]	7 nM	> 10 µM	1320 nM	
COc1cc(CC2CCCC2C(=O)NCc2ccc(C(=O)O)cc2)cc(OC)c1 (single isomer, unassigned) [Example 1, 4-((2-(3,5-Dimethoxybenzyl)cyclopentanecarboxamido)methyl)benzoic Acid]	30 nM		6190 nM	weak
COc1cc(CC2=C(C(=O)NCc3ccc(C(=O)O)cc3)C3CCC2C3)cc(OC)c1 (centres unmarked) [Example 36, 4-((3-(3,5-Dimethoxybenzyl)bicyclo[2.2.1]hept-2-ene-2-carboxamido)methyl)benzoic Acid]	1010 nM			
CN(Cc1ccc(C(=O)O)cc1)C(=O)C1=C(Cc2cccc(C(F)(F)F)c2)CCC1 [Example 7, 4-((N-Methyl-2-(3-(trifluoromethyl)benzyl)cyclopent-1-enecarboxamido)methyl)benzoic Acid]	1570 nM			
COc1ccc(CC2CCCCC2C(=O)NCc2ccc(C(=O)O)cc2)cc1OC (single isomer, unassigned) [Example 23, 4-((2-(3,4-Dimethoxybenzyl)cyclohexanecarboxamido)methyl)benzoic Acid]	8 nM	> 10 µM		

Further compounds by falling Ki [1], results first:

Ki [1]	EC50 [2]	Ki [3]	EP4 data cAMP EC50 [2]	SMILES
402 nM	> 10 µM			COc1cc(CC2C3CCC(C3)C2C(=O)NCc2ccc(C(=O)O)cc2)cc(OC)c1 (centres unmarked) [Example 38, 4-((3-(3,5-Dimethoxybenzyl)bicyclo[2.2.1]heptane-2-carboxamido)methyl)benzoic Acid]
323 nM	> 10 µM			COc1cc(/C=C2\[C@@H]3CC[C@@H](C3)[C@H]2C(=O)NCc2ccc(C(=O)O)cc2)cc(OC)c1 (racemic) [Example 37, 4-(((1S,2R,4R,E)-3-(3,5-Dimethoxybenzylidene)bicyclo[2.2.1]heptane-2-carboxamido)methyl)benzoic Acid]
84 nM	0.009 µM	> 10000 nM		COc1cc(CC2CCCC2C(=O)NCc2ccc(C(=O)O)cc2)cc(OC)c1 (single isomer, unassigned) [Example 2, 4-((2-(3,5-Dimethoxybenzyl)cyclopentanecarboxamido)methyl)benzoic Acid]
58 nM	> 10 µM	4950 nM		O=C(O)c1ccc(CNC(=O)C2CCCCC2Cc2ccccc2)cc1 (single isomer, unassigned) [Example 25, 4-((2-Benzylcyclohexanecarboxamido)methyl)benzoic Acid]
17 nM	> 10 µM	7480 nM		COc1cccc(CC2CCCCC2C(=O)NCc2ccc(C(=O)O)cc2)c1OC (single isomer, unassigned) [Example 15, 4-((2-(2,3-Dimethoxybenzyl)cyclohexanecarboxamido)methyl)benzoic Acid]
4 nM	> 10 µM			COc1ccc(CC2=C(C(=O)NCc3ccc(C(=O)O)cc3)CCCC2)cc1OC [Example 21, 4-((2-(3,4-Dimethoxybenzyl)cyclohex-1-enecarboxamido)methyl)benzoic Acid]
4 nM	> 10 µM	2350 nM		COc1cccc(CC2CCCCC2C(=O)NCc2ccc(C(=O)O)cc2)c1 (single isomer, unassigned) [Example 28, 4-((2-(3-Methoxybenzyl)cyclohexanecarboxamido)methyl)benzoic Acid]
4 nM	> 10 µM			COc1ccc(CC2CCCCC2C(=O)NCc2ccc(C(=O)O)cc2)cc1OC (single isomer, unassigned) [Example 22, 4-((2-(3,4-Dimethoxybenzyl)cyclohexanecarboxamido)methyl)benzoic Acid]
2 nM	0.0002 µM	393 nM		COc1ccc(OC)c(CC2CCCCC2C(=O)NCc2ccc(C(=O)O)cc2)c1 (single isomer, unassigned) [Example 19, 4-((2-(2,5-Dimethoxybenzyl)cyclohexanecarboxamido)methyl)benzoic Acid]
